Assay results: ChEMBL document CHEMBL4732103, “Development of Indoleamine 2,3-Dioxygenase 1 Inhibitors for Cancer Therapy and Beyond: A Recent Perspective” (J Med Chem, 2020)
One block for each molecule: values may come before it.

Key:
[1] = target: T1, Indoleamine 2,3-dioxygenase 1 (Homo sapiens, UniProt P14902); experiment: Binding affinity to recombinant human IDO1 expressed in Escherichia coli BL21 incubated for 4 hrs by UV-Visible Spectroscopy
[2] = target: T1, Indoleamine 2,3-dioxygenase 1; experiment: Inhibition of human IDO1
[3] = target: T1, Indoleamine 2,3-dioxygenase 1; experiment: Inhibition of IDO1 (unknown origin)
[4] = Inhibition of IDO1/TDO2 in human BT-549 cells assessed as suppression of kynurenine using L-tryptophan as substrate for 18 hrs by 4-(dimethylamino)benzaldehyde based absorbance method; assay type: cell-based; details: BT-549, 18 h
[5] = target: T1, Indoleamine 2,3-dioxygenase 1; experiment: Inhibition of IDO1 in human SK-OV-3 cells assessed as effect on KYN level using L-tryptophan as substrate incubated for 18 hrs by 4-(dimethylamino)benzaldehyde based absorbance method; assay type: cell-based
[6] = target: T1, Indoleamine 2,3-dioxygenase 1; experiment: Inhibition of IDO1 in IFN-gamma stimulated human HeLa cells assessed as effect on kynurenine level incubated for 48 hrs by p-dimethylaminobenzaldehyde based assay
[7] = target: Tryptophan 2,3-dioxygenase (Homo sapiens, UniProt P48775); experiment: Inhibition of recombinant human TDO expressed in Escherichia coli Rosetta (DE3) pLysS incubated for 20 mins by Dixon plot analysis
Tryptophan 2,3-dioxygenase, sequence (P48775 whole entry): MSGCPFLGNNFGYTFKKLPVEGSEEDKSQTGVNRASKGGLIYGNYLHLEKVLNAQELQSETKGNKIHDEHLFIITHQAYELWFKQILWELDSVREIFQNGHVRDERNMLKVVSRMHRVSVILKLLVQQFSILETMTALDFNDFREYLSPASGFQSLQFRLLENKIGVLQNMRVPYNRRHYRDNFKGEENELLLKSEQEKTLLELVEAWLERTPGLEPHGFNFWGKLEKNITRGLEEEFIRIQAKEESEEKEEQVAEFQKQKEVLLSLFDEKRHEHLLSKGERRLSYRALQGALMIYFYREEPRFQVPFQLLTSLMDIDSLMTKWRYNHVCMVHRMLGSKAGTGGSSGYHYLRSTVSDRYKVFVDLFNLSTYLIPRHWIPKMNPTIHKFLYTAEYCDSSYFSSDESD

[8] = target: T1, Indoleamine 2,3-dioxygenase 1; experiment: Inhibition of recombinant human IDO1 expressed in Escherichia coli BL21(DE3) incubated for 15 mins by Dixon plot analysis
[9] = Cytotoxicity against human HeLa cells incubated for 48 hrs by MTT assay; assay type: cell-based
[10] = target: Protein cereblon/Indoleamine 2,3-dioxygenase 1 (Homo sapiens, UniProt P14902+Q96SW2); experiment: Induction of CRBN-mediated IDO1 degradation in IFNgamma-stimulated human HeLa cells incubated for 24 hrs by Western blot analysis
Protein cereblon/Indoleamine 2,3-dioxygenase 1, sequence (P14902 whole entry): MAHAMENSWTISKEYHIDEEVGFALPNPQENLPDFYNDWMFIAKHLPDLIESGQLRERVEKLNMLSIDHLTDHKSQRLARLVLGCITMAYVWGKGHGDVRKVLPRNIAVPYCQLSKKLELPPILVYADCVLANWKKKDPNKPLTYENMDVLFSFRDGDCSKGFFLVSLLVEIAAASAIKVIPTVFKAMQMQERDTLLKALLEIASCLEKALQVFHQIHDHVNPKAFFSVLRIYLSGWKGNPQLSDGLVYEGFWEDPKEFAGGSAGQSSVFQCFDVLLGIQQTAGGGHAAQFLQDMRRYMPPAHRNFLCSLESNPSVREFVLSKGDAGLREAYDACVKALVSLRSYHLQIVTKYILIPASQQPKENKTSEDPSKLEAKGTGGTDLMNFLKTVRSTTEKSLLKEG
Protein cereblon/Indoleamine 2,3-dioxygenase 1, sequence (Q96SW2 whole entry): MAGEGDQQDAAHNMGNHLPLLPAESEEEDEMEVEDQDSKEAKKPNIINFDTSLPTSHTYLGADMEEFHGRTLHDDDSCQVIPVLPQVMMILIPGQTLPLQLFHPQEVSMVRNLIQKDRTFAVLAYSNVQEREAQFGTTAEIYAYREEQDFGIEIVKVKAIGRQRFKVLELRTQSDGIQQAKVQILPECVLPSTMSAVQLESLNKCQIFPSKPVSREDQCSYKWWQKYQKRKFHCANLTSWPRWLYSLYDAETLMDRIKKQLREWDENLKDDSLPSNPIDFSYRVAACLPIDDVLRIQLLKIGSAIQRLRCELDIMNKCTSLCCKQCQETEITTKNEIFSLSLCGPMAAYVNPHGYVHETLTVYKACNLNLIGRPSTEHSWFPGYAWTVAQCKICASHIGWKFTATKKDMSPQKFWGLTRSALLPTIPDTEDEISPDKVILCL

[11] = target: T1, Indoleamine 2,3-dioxygenase 1; experiment: Inhibition of IDO1 (unknown origin) by cell-based assay
[12] = target: T1, Indoleamine 2,3-dioxygenase 1; experiment: Inhibition of human N-terminal His-tagged IDO1 expressed in Escherichia coli M15 incubated for 1 hr by UV-Vis spectrophotometric method
[13] = target: T1, Indoleamine 2,3-dioxygenase 1; experiment: Inhibition of human IDO1 in IFN-stimulated human MDA-MB-231 cells preincubated for 48 hrs followed by L-tryptophan addition and measured after 5 hrs by UV-Vis spectrophotometric method; assay type: cell-based
[14] = target: T1, Indoleamine 2,3-dioxygenase 1; experiment: Inhibition of IDO1 in human HeLa cells; assay type: cell-based
HEK-293T = experiment: Cytotoxicity against HEK293T cells; assay type: cell-based; details: Homo sapiens
[15] = target: T1, Indoleamine 2,3-dioxygenase 1; experiment: Inhibition of IDO1 in IFN-gamma stimulated human HeLa cells centrifuged for 10 mins
[16] = target: T1, Indoleamine 2,3-dioxygenase 1; experiment: Inhibition of human IDO1 using D-Trp as substrate by absorbance method
[17] = target: T1, Indoleamine 2,3-dioxygenase 1; experiment: Inhibition of recombinant human IDO1 expressed in Escherichia coli BL21(DE3) assessed as effect on kynurenine level using L-tryptophan as substrate incubated for 1 hr by Ehrlich's reagent based assay
[18] = target: T1, Indoleamine 2,3-dioxygenase 1; experiment: Inhibition of IDO1 in IFN-gamma stimulated human HeLa cells assessed as effect on KYN level incubated for 48 hrs by rapidfire-mass spectrometry
[19] = target: T1, Indoleamine 2,3-dioxygenase 1; experiment: Inhibition of human 6His/FLAG-tagged/Avi/TEV-fused IDO1 expressed in Escherichia coli by absorbance method
[20] = target: T1, Indoleamine 2,3-dioxygenase 1; experiment: Inhibition of human His6-tagged IDO1 expressed in Escherichia coli BL21 incubated for 90 mins using L-tryptophan as substrate by fluorescence assay
[21] = target: Indoleamine 2,3-dioxygenase 1 (Mus musculus, UniProt P28776); experiment: Inhibition of mouse IDO1 expressed in mouse P1.HTR cells assessed as inhibition of Kyn production incubated for 16 hrs by HPLC analysis; assay type: cell-based
Indoleamine 2,3-dioxygenase 1 (Mus musculus, UniProt P28776), sequence (P28776 whole entry): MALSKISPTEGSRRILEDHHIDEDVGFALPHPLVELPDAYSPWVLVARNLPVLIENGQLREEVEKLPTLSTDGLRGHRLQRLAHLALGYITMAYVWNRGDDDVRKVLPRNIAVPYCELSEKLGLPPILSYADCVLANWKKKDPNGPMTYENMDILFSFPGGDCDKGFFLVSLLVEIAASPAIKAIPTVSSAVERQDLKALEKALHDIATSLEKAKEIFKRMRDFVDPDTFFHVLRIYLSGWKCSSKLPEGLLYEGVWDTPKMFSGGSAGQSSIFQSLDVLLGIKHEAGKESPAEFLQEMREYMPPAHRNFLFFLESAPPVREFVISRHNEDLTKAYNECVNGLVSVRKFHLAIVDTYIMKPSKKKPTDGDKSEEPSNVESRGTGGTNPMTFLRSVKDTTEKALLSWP

[22] = target: T1, Indoleamine 2,3-dioxygenase 1; experiment: Inhibition of IDO1 in IFN-gamma stimulated human HeLa cells
[23] = target: T1, Indoleamine 2,3-dioxygenase 1; experiment: Inhibition of human IDO1 incubated for 60 mins using L-tryptophan as substrate by absorbance method

T1 sequence (P14902 whole entry): as the sequence (P14902 whole entry) above

Structure (SMILES): Clc1ccc(Nc2cn[nH]n2)cc1
- Kd [1]: 2.3 µM

Structure (SMILES): c1ccc2c(c1)[nH]c1cnccc12 [NORHARMANE]
- Ki [3]: 180 µM

Structure (SMILES): O=C1CCC(N2C(=O)c3cccc(NCCOCCOCCOCCOCCOCCOCCOCCNCCNc4nonc4/C(=N/O)Nc4ccc(F)c(Br)c4)c3C2=O)C(=O)N1 (stereo not drawn)
- CC50 at 48 h [9]: 37.4 µM
- DC50 [10]: 2.84 µM

Structure (SMILES): C[C@@H](NC(=O)c1ccc(F)cc1)c1ccc2c(c1)CCN2C(=O)C1CCOCC1 [LY-3381916]
- IC50 [11]: 0.007 µM

Structure (SMILES): NC(=O)c1n[nH]nc1-c1ccc(F)c(F)c1
- IC50 [12]: 0.11 µM
- EC50 [13]: 0.074 µM

Structure (SMILES): NS(=O)(=O)NCCNC(=O)c1n[nH]nc1-c1ccc(F)cc1
- IC50 [12]: 0.092 µM
- EC50 [13]: 0.074 µM

Structure (SMILES): CC(C)CN(c1ccc(-c2c(C(=O)O)ccc3ccccc23)cc1NC(=O)Nc1ccc(Br)cc1F)C1CCCCC1
- IC50 [15]: 0.0026 µM

Structure (SMILES): O=C(Cc1cccc(N(CCCl)CCCl)c1)NCCNc1nonc1/C(=N/O)Nc1ccc(F)c(Br)c1
- IC50 [16]: 0.13 µM
- EC50 [6]: 0.27 µM

Structure (SMILES): N#Cc1ccc(C(F)(F)F)c(SCC(=O)Nc2ccc(F)c(Cl)c2)n1
- IC50 [17]: 0.84 µM

Structure (SMILES): CC(C)CN(CC(C)C)c1ccc([C@H](C)CC(=O)O)cc1NCNc1nc(C(F)(F)F)ns1
- IC50 [18]: 0.0059 µM
- IC50 [19]: 0.039 µM

Structure (SMILES): O=C(O)C[C@H]1CNC(=S)c2cc(Br)c(Br)n21
- IC50 [23]: 92 µM

Further lines, with some results ahead:

- IC50 [2]: 0.001 µM
Structure (SMILES): O=C1c2nnn(Cc3ccccc3)c2C(=O)c2nnn(Cc3ccccc3)c21

- IC50 [4]: 3.42 µM
- IC50 [5]: > 40 µM
Structure (SMILES): CC1=C(CC(=O)c2sccc2C)C(=O)c2ccccc2C1=O

- IC50 [6]: 1.01 µM
Structure (SMILES): C=C1OC2=C(C(=O)c3ccccc3C2=O)C1(C)C

- Ki [7]: 4 µM
- Ki [8]: 1 µM
Structure (SMILES): O=C(c1ccccc1)C(c1ccccc1)C1(O)C(=O)Nc2c(Cl)cc(Cl)cc21 (stereo not drawn)

- IC50 [2]: 0.13 µM
- IC50 [14]: 11.2 µM
Structure (SMILES): COC1=C(OC)C(=O)C(Nc2cccc(Br)c2)=CC1=O
- IC50 (HEK-293T): 28 µM

- IC50 [20]: 3 µM
Structure (SMILES): O=C(CSc1nnc2scc(-c3ccccc3)n12)Nc1ccc2c(c1)OCO2

- IC50 [21]: 11.4 µM
Structure (SMILES): Cc1c(C)n(CC(O)CNc2ccccc2)c2ccccc12 (stereo not drawn)

- IC50 [22]: 1.57 µM
Structure (SMILES): Nc1nonc1/C(=N/O)N1Cc2ccccc2C1
